Patent publication US9295665B2, “Inhibition of neovascularization by simultaneous inhibition of prostanoid IP and EP4 receptors” (ALLERGAN, INC., priority 2013, dated 2016)
One block for each compound: values may come before it.

Experiments:
IP receptor [1] = biological target: T1, IP receptor (Homo sapiens, UniProt P43119); experiment: VEGF secretion in TNFα-stimulated human macrophages (IP agonist / IP antagonist)
Procedure: (§1) Histogram ordering (both panels, left to right): No stimulus; vehicle; 0.1 nM; 1 nM; 10 nM; 100 nM; 1000 nM of agonist.

EP4 receptor = EP4 receptor (Homo sapiens, UniProt P35408); experiment: VEGF secretion in TNFα-stimulated human macrophages (EP4 agonist / EP4 antagonist); conditions: 100 nM PGE2, TNFα-stimulated human macrophages from individual donors, 1, 3, 10 μM antagonist, n=3
Chain of EP4 receptor (P35408 whole entry): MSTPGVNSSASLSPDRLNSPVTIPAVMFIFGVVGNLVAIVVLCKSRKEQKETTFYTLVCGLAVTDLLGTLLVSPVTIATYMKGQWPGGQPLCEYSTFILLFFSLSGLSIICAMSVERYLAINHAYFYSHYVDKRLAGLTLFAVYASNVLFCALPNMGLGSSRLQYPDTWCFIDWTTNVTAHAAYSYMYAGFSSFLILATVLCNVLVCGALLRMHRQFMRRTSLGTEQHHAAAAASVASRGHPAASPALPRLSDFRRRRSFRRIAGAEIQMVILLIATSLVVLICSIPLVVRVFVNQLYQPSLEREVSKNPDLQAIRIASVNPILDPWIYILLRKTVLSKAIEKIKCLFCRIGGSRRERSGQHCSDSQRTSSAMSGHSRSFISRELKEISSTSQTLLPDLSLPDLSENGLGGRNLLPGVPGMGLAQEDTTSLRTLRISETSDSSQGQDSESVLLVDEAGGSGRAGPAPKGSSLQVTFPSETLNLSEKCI
Procedure: as §1

IP receptor [2] = biological target: T1, IP receptor; experiment: Cellular Dielectric Spectroscopy (impedance) in human retinal microvascular endothelial cells, IP agonist; assay type: cell-based; design: TNFα-stimulated human macrophages, obtained from individual donors; endogenous in cells; host or cells: TNFα-stimulated human macrophages from individual donors; conditions: HRMECs, normalized to PGE2 at 10 μM; read-out: EC50, change in impedance
Procedure: Cellular dielectric spectroscopy, as known in the art, was employed to determine EC50 levels for EP4 agonist and IP agonist in human retinal microvascular endothelial cells (HRMECs). […].
Cellular Dielectric Spectroscopy (CDS) is a label-free technology to measure the changes in impedance of cells in response to receptor stimulation. HRMEC cells were seeded at on 96 well plates (CDS plates) coated with fibronectin and incubated for 24 hrs at 37° C., 5% CO2. On the day of the experiment, the culture medium was replaced by HBSS, BSA 1% and incubated for 1 h at 28° C. Compounds were then added and the signal was monitored for 10 minutes at 28° C. Compounds were tested at the following final concentrations in assay buffer containing 0.1% DMSO: 1E-12, 1E-11, 1E-10, 1E-9, 1E-8, 1E-7, 1E-6, and 1E-5M. The background signal (buffer only) was systematically subtracted to the signal in order to determine the specific signal. The effect of EP4 agonist Formula V and IP agonist Cicaprost were normalized to the signal of the positive control PGE2 at 10 μM. All data were generated in duplicate.

T1 sequence (P43119 whole entry): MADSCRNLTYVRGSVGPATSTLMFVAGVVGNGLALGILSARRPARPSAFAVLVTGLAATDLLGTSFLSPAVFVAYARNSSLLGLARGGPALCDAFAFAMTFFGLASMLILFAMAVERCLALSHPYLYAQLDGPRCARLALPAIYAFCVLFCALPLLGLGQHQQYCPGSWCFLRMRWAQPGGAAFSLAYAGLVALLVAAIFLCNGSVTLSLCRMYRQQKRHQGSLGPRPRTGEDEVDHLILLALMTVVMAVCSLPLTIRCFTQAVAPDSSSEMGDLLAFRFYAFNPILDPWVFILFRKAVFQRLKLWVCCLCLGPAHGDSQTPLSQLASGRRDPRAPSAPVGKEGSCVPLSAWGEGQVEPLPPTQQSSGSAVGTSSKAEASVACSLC

Inhibition of Cicaprost-induced VEGF secretion (IP receptor [1]; 100 nM Cicaprost, TNFα-stimulated human macrophages from individual donors, 1, 3, 10 μM antagonist, n=2): dose dependently inhibiting
SMILES: CC(C)Oc1ccc(Cc2ccc(NC3=NCCN3)cc2)cc1 [Formula I]

Inhibition of PGE2-induced VEGF secretion (EP4 receptor): dose dependently inhibiting
SMILES: CCOc1c2c(c(OCC)c3ccccc13)C(=O)N(c1ccc(CC(=O)NS(=O)(=O)c3ccccc3)cc1)C2 [Formula IV]

EC50 (IP receptor [1]): 2.3 nM | EC50 (IP receptor [2]): 18 nM
SMILES: CCC#CC[C@H](C)[C@H](O)C#C[C@@H]1[C@H]2C/C(=C/COCC(=O)O)C[C@H]2C[C@H]1O [Cicaprost, cicaprost]
